Structures are written as SMILES. Values after ≈ are worked out from the molar mass of the structure shown.

We go through six compounds from patent US9556165B2 (priority 2012, dated 2017).

What all share (format): cell-based
The subject of test [1] is A. baumannii ATCC15308. Briefly: MIC determination, broth microdilution (CLSI). The conditions noted are these: for MIC: Acinetobacter baumannii, ATCC15308, strain 9.
Test [2] has as its system C. perfringens DSM756. Briefly: microbe, parasite or virus in culture. The following applies: for MIC: Clostridium perfringens, DSM756, read-out: strain 16 MIC, strain 16.
Test [3] relates to strain 21. In words: MIC determination, broth microdilution (CLSI). (Broth dilution looks for growth in wells or tubes with falling amounts of substance.)
Test [4] concerns S. aureus 133. Briefly: MIC determination, broth microdilution (CLSI). The following applies: for MIC: Staphylococcus aureus, 133, strain 11, read-out: strain 11 MIC.
Test [5] deals with M. catarrhalis ICB489. In words: MIC determination, broth microdilution (CLSI). The conditions noted are these: for MIC: Moraxella catarrhalis, ICB489, strain 12.
Test [6] relates to P. aeruginosa 2297-con (AmpC derepressed). Briefly: MIC determination, broth microdilution (CLSI). The following applies: for MIC: Pseudomonas aeruginosa, read-out: strain 8 MIC, strain 8.
Test [7] deals with P. aeruginosa 2297 (AmpC wt). Briefly: MIC determination, broth microdilution (CLSI). The conditions noted are these: for MIC: Pseudomonas aeruginosa, strain 7.
The subject of test [8] is P. aeruginosa PAO1. In words: MIC determination, broth microdilution (CLSI). The conditions noted are these: for MIC: Pseudomonas aeruginosa, PAO1, strain 6.
Test [9] deals with E. coli J62. Briefly: MIC determination, broth microdilution (CLSI). The conditions noted are these: for MIC: Escherichia coli, J62, strain 17, read-out: strain 17 MIC.
Test [10] has as its system E. coli ATCC25922. Briefly: MIC determination, broth microdilution (CLSI). The conditions noted are these: for MIC: Escherichia coli, ATCC25922, strain 1.
Test [11] deals with E. coli J62-TEM-3. Briefly: MIC determination, broth microdilution (CLSI). The following applies: for MIC: Escherichia coli, J62TEM3, read-out: strain 18 MIC, strain 18.
Test [12] relates to H. influenzae ATCC 49247. In words: MIC determination, broth microdilution (CLSI). The conditions noted are these: for MIC: Haemophilus influenzae, ATCC49247, strain 13, read-out: strain 13 MIC.
In test [13] the test system is strain 19. In words: MIC determination, broth microdilution (CLSI).
Test [14] concerns E. cloacae 34654. Briefly: MIC determination, broth microdilution (CLSI). The conditions noted are these: for MIC: Enterobacter cloacae, 34654, strain 3.
Test [15] concerns B. fragilis 6688. Briefly: MIC determination, broth microdilution (CLSI). The conditions noted are these: for MIC: Bacteroides fragilis, 6688, strain 15, read-out: strain 15 MIC.
Test [16] relates to K. pneumoniae 60. Briefly: MIC determination, broth microdilution (CLSI). The following applies: for MIC: Klebsiella pneumoniae, 60, strain 2.
Test [17] deals with S. maltophilia ICB7569. Briefly: MIC determination, broth microdilution (CLSI). The conditions noted are these: for MIC: Stenotrophomonas maltophilia, ICB7569, strain 10.
Test [18] relates to strain 20. In words: MIC determination, broth microdilution (CLSI).
The subject of test [19] is M. morganii 126/3048. In words: MIC determination, broth microdilution (CLSI). The conditions noted are these: for MIC: Morganella morganii, 126/3048, strain 5.
For test [20], the system named is C. freundii K21/3034. In words: MIC determination, broth microdilution (CLSI). The conditions noted are these: for MIC: Citrobacter freundii, K21/3034, strain 4.
The subject of test [21] is S. pneumoniae 113. Briefly: MIC determination, broth microdilution (CLSI). The following applies: Streptococcus pneumoniae, 113, strain 14; read-out: strain 14 MIC.

On to `CC1(C)[C@H](NC(=O)/C(=N\OC(COc2ccc(C(=N)N)cc2)C(=O)O)c2csc(N)n2)C(=O)N1OS(=O)(=O)O` (mixture of isomers) [Example 27A, (2S and 2R)-2-({[(1Z)-1-(2-Amino-1,3-thiazol-4-yl)-2-{[(3S)-2,2-dimethyl-4-oxo-1-(sulfo-oxy)azetidin-3-yl]amino}-2-oxoethylidene]amino}oxy)-3-(4-carbamimidoylphenoxy)-propanoic acid], for which the “strain 9 MIC” value in test [1] came to 4 µg/mL. Moreover, the “strain 16 MIC” value in test [2] was 4 µg/mL. Besides, the “strain 21 MIC” value in [3] came to 0.25 µg/mL. Also, the MIC in test [4] was at most 0.063 µg/mL; in test [11], 8 µg/mL; in test [12], 0.5 µg/mL; in test [17], 4 µg/mL. Also, the “strain 12 MIC” value in test [5] was “≦0.063 mg/L”. Also, in test [6], the “strain 8 MIC” value amounted to 4 µg/mL. In addition, the “strain 7 MIC” value in test [7] came out at 4 µg/mL. Also, in [8], the “strain 6 MIC” value is 4 µg/mL. For the same compound, the “strain 17 MIC” value in [9] was 0.25 µg/mL. In addition, the “strain 1 MIC” value in [10] was found to be 0.25 µg/mL. The “strain 19 MIC” value in [13] turned out to be 0.25 µg/mL. The “strain 3 MIC” value in test [14] amounted to 0.25 µg/mL. For the same compound, the “strain 15 MIC” value in test [15] came to 8 µg/mL. Also, in test [16], the “strain 2 MIC” value came out at 0.125 µg/mL. Besides, in [18], the “strain 20 MIC” value came to 0.25 µg/mL. Besides, the “strain 5 MIC” value in test [19] is 0.125 µg/mL. In test [20], the “strain 4 MIC” value is 0.25 µg/mL.
Consider `CC1(C)[C@H](NC(=O)/C(=N\OC(COc2ccc(C(=N)N)c(O)c2)C(=O)O)c2csc(N)n2)C(=O)N1OS(=O)(=O)O` (mixture of isomers) [Example 34B, (2S and 2R)-2-({[(1Z)-1-(2-Amino-1,3-thiazol-4-yl)-2-{[(3S)-2,2-dimethyl-4-oxo-1-(sulfo-oxy)azetidin-3-yl]amino}-2-oxoethylidene]amino}oxy)-3-(4-carbamimidoyl-3-hydroxyphenoxy)propanoic acid], for which the “strain 9 MIC” value in test [1] was 32 µg/mL. Also, the “strain 16 MIC” value in test [2] turned out to be 32 µg/mL. For the same compound, the “strain 21 MIC” value in [3] amounted to 8 µg/mL. Besides, the “strain 11 MIC” value in test [4] is 0.25 µg/mL. Also, the “strain 12 MIC” value in [5] was determined as 0.5 µg/mL. For the same compound, the “strain 8 MIC” value in test [6] was 32 µg/mL. The “strain 7 MIC” value in [7] came to 32 µg/mL. Also, the “strain 6 MIC” value in test [8] came out at 32 µg/mL. In addition, in test [9], the “strain 17 MIC” value amounted to 16 µg/mL. In test [10], the “strain 1 MIC” value was determined as 8 µg/mL. Also, the “strain 18 MIC” value in test [11] turned out to be 32 µg/mL. In addition, the “strain 13 MIC” value in test [12] came to 8 µg/mL. For the same compound, the “strain 19 MIC” value in [13] is 4 µg/mL. Moreover, the “strain 3 MIC” value in [14] came to 4 µg/mL. For the same compound, in test [16], the “strain 2 MIC” value amounted to 8 µg/mL. Moreover, in [17], the “strain 10 MIC” value stood at 32 µg/mL. For the same compound, the “strain 20 MIC” value in test [18] amounted to 4 µg/mL. Also, the “strain 5 MIC” value in test [19] is 4 µg/mL. The “strain 4 MIC” value in test [20] worked out at 8 µg/mL.
Turning to `CC1(C)[C@H](NC(=O)/C(=N\OC(COc2ccc(C(=N)N)nc2)C(=O)O)c2csc(N)n2)C(=O)N1OS(=O)(=O)O` (mixture of isomers) [Example 36B, (2S and 2R)-2-({[(1Z)-1-(2-Amino-1,3-thiazol-4-yl)-2-{[(3S)-2,2-dimethyl-4-oxo-1-(sulfo-oxy)azetidin-3-yl]amino}-2-oxoethylidene]amino}oxy)-3-[(6-carbamimidoylpyridin-3-yl)oxy]propanoic acid], the “strain 9 MIC” value in test [1] amounted to 32 µg/mL. Moreover, the “strain 16 MIC” value in [2] is 32 µg/mL. Moreover, in [3], the “strain 21 MIC” value is 2 µg/mL. Moreover, the “strain 11 MIC” value in [4] amounted to 0.125 µg/mL. The “strain 12 MIC” value in [5] came to 0.5 µg/mL. In addition, the “strain 8 MIC” value in test [6] stood at 32 µg/mL. Further, the “strain 6 MIC” value in test [8] came to 16 µg/mL. For the same compound, the “strain 17 MIC” value in [9] was determined as 4 µg/mL. Besides, the “strain 1 MIC” value in [10] was 2 µg/mL. The “strain 18 MIC” value in [11] came out at 32 µg/mL. The “strain 13 MIC” value in test [12] was found to be 4 µg/mL. The “strain 19 MIC” value in test [13] worked out at 2 µg/mL. Moreover, the “strain 3 MIC” value in test [14] amounted to 2 µg/mL. Moreover, the “strain 15 MIC” value in test [15] came out at 32 µg/mL. Further, in test [16], the “strain 2 MIC” value came out at 1 µg/mL. Moreover, the “strain 10 MIC” value in test [17] was 16 µg/mL. Further, in [18], the “strain 20 MIC” value came out at 2 µg/mL. In [19], the “strain 5 MIC” value turned out to be 2 µg/mL. For the same compound, the “strain 4 MIC” value in [20] came to 0.5 µg/mL.
For the compound `C[C@H]1[C@H](NC(=O)/C(=N\OCCOc2ccc(C(=N)N)cc2)c2csc(N)n2)C(=O)N1OCS(=O)(=O)O` [Example 12, {[(2S,3S)-3-{[(2Z)-2-(2-Amino-1,3-thiazol-4-yl)-2-{[2-(4-carbamimidoylphenoxy)ethoxy]imino}acetyl]amino}-2-methyl-4-oxoazetidin-1-yl]oxy}methanesulfonic acid], the MIC came out at 4 µg/mL (≈ 7.39 µM) in test [1]; 16 µg/mL (≈ 29.5 µM) in [2]; 0.25 µg/mL (≈ 0.462 µM) in test [3]; 0.125 µg/mL (≈ 0.231 µM) in [4]; 0.25 µg/mL (≈ 0.462 µM) in test [5]; 8 µg/mL (≈ 14.8 µM) in test [7]. For the same compound, the MIC was 4 µg/mL (≈ 7.39 µM) in test [8]; 0.5 µg/mL (≈ 0.923 µM) in test [9]; 0.5 µg/mL (≈ 0.923 µM) in [10]; 32 µg/mL (≈ 59.1 µM) in test [21]; 8 µg/mL (≈ 14.8 µM) in [11]; at most 0.063 µg/mL in test [12]. Besides, the MIC stood at 0.5 µg/mL (≈ 0.923 µM) in test [13]; 0.5 µg/mL (≈ 0.923 µM) in test [14]; 8 µg/mL (≈ 14.8 µM) in test [15]; 0.25 µg/mL (≈ 0.462 µM) in [16]; 8 µg/mL (≈ 14.8 µM) in [17]; 0.25 µg/mL (≈ 0.462 µM) in test [18]. The MIC in test [19] and in [20] was 0.25 µg/mL (≈ 0.462 µM) each time.
In the case of `Cc1cc(OCCO/N=C(\C(=O)N[C@@H]2C(=O)N(OS(=O)(=O)O)C2(C)C)c2csc(N)n2)ccc1C(=N)N` [Example 13, (2Z)-2-(2-Amino-1,3-thiazol-4-yl)-2-{[2-(4-carbamimidoyl-3-methylphenoxy)ethoxy]imino}-N-[(3S)-2,2-dimethyl-4-oxo-1-(sulfooxy)azetidin-3-yl]ethanamide], the MIC was 1 µg/mL (≈ 1.8 µM) in [1]; 2 µg/mL (≈ 3.6 µM) in test [2]; 0.5 µg/mL (≈ 0.9 µM) in test [3]; at most 0.063 µg/mL in test [4]; 0.125 µg/mL (≈ 0.225 µM) in [5]; 8 µg/mL (≈ 14.4 µM) in [6]. Also, the MIC in test [7] turned out to be 16 µg/mL (≈ 28.8 µM); in test [8], 8 µg/mL (≈ 14.4 µM); in test [9] it was 0.5 µg/mL (≈ 0.9 µM); in test [10], 0.5 µg/mL (≈ 0.9 µM); in test [21], 4 µg/mL (≈ 7.2 µM); in test [11], 32 µg/mL (≈ 57.6 µM). For the same compound, the MIC in test [12] was at most 0.063 µg/mL; in [13] it was 0.5 µg/mL (≈ 0.9 µM); in test [14], 1 µg/mL (≈ 1.8 µM); in test [15], 4 µg/mL (≈ 7.2 µM); in [16], 1 µg/mL (≈ 1.8 µM); in test [18] it was 0.5 µg/mL (≈ 0.9 µM). In addition, the MIC in [19] came out at 0.5 µg/mL (≈ 0.9 µM); in test [20], 0.25 µg/mL (≈ 0.45 µM).
As for `C[C@H]1[C@H](NC(=O)/C(=N\OC(C)(C)COc2ccc(C(=N)N)cc2)c2csc(N)n2)C(=O)N1S(=O)(=O)O` [Example 18, (2S,3S)-3-{[(2Z)-2-(2-Amino-1,3-thiazol-4-yl)-2-({[1-(4-carbamimidoylphenoxy)-2-methylpropan-2-yl]oxy}imino)acetyl]amino}-2-methyl-4-oxoazetidine-1-sulfonic acid], the MIC in test [1] amounted to 16 µg/mL (≈ 29.7 µM); in test [3], 2 µg/mL (≈ 3.71 µM); in test [4], 0.25 µg/mL (≈ 0.463 µM); in [5], 0.5 µg/mL (≈ 0.927 µM); in [6], 16 µg/mL (≈ 29.7 µM); in [7], 4 µg/mL (≈ 7.41 µM). Also, the MIC came out at 4 µg/mL (≈ 7.41 µM) in [8]; 2 µg/mL (≈ 3.71 µM) in test [9]; 1 µg/mL (≈ 1.85 µM) in [10]; 4 µg/mL (≈ 7.41 µM) in test [21]; 4 µg/mL (≈ 7.41 µM) in test [11]; 0.5 µg/mL (≈ 0.927 µM) in test [12]. The MIC was 2 µg/mL (≈ 3.71 µM) in test [13]; 2 µg/mL (≈ 3.71 µM) in test [14]; 4 µg/mL (≈ 7.41 µM) in [15]; 1 µg/mL (≈ 1.85 µM) in test [16]; 16 µg/mL (≈ 29.7 µM) in [17]; 2 µg/mL (≈ 3.71 µM) in [18]. The MIC in test [19] and in [20] was 1 µg/mL (≈ 1.85 µM) in each case.
